In article PMC12333940, “A prometabolite strategy inhibits cardiometabolic disease in an ApoE^–/– murine model of atherosclerosis” (JCI Insight, 2025):
Where “and” joins values, the source holds several entries; their conditions need not be identical. Equal values may be shown once.

Legend:
[1] = tested on: ApoE^–/– mice on an HFD; assay: qPCR of liver lipid metabolism genes; type: in vivo, mouse; set-up: srebf1 / srebf2 / fasn / acly / scd1 / acaca / cpt1a: scale not given here
Protocol: We then asked whether SerBut’s effects on disease pathology and inflammation may be partially mediated by changes in lipid metabolism by measuring lipogenic and lipid oxidation gene expression by qPCR after treatment for 6 weeks (Supplemental Figure 10, F–L).
(§1) For 6 weeks, mice were freely administered water, water containing 150 mM SerBut, or water containing an equimolar amount of NaBut. SerBut water was pH adjusted using 10 M NaOH to a final pH of 7.4. […] In concert, mice were fed an HFD with 42% from fat and 0.2% total cholesterol (Envigo, TD-88137) ad libitum. After 6 weeks, mice were euthanized. The lMLNs, ILNs, spleen, heart, and aorta were harvested and processed for flow cytometry analysis ([67]). The liver was harvested and part was homogenized in tissue protein extraction reagent buffer (Invitrogen, 78510) supplemented with protease inhibitor mini tablets (Thermo Fisher Scientific, PIA32955) for Western blotting and qPCR. The remaining liver was fixed with 4% paraformaldehyde and embedded in paraffin for histological analysis.

[2] = tested on: RAW 264.7 macrophages; assay: LEGENDPlex cytokines in supernatant of LPS-stimulated RAW 264.7; type: cell-based; set-up: TNFa (Legendplex) / MCP-1 (Legendplex) / IL-10 (Legendplex) / IL-6 (Legendplex): unit not given here
Protocol: RAW 264.7 (ATCC, TIB-71) macrophages were cultured at 37°C and 5% CO2 in DMEM (Gibco) supplemented with 1 mM HEPES, 1 mM sodium pyruvate, 10% FBS, and penicillin/streptomycin. Cells were plated in round-bottom 96-well plates at 100,000 cells per well and incubated with different concentrations of either NaBut or SerBut (0.15–12 mM) for 24 hours. Cells were then rinsed with PBS and then stimulated with 200 ng/mL LPS in media for 6 hours. The cell culture supernatant was collected and analyzed by LEGENDPlex to analyze the concentrations of cytokines (BioLegend). Cell phenotype was analyzed using flow cytometry (Cytek Aurora).

[3] = tested on: ApoE^–/– mice on an HFD; assay: Flow cytometry of blood, lymph nodes and spleen; type: in vivo, mouse; set-up: Treg / Th17 / F480+CD11b+ Macrophages / iNOS+ Macs / Arg1+ Macs: unit not given here
Protocol: SerBut water was pH adjusted using 10 M NaOH to a final pH of 7.4. […] After 6 weeks, mice were euthanized. The lMLNs, ILNs, spleen, heart, and aorta were harvested and processed for flow cytometry analysis ([67]). […] The remaining liver was fixed with 4% paraformaldehyde and embedded in paraffin for histological analysis.
Flow cytometry was performed using a BD LSRFortessa or a Cytek Aurora full-spectrum cytometer.

[4] = tested on: ApoE^–/– mice on an HFD; assay: Histological grading and scoring of livers; type: in vivo, mouse; set-up: key to Liver Grading and Staging: Lobular inflammation (CD3+): one focus in which more than 10 periductal CD3^+ lymphocytes are found in an ×200 field; 2 to 5 instances of more than 10 periductal CD3^+ immune cells in an ×200 field; 3: Any sample exceeding this threshold
Protocol: as §1
Sections (8 μm thick) were stained. Digital image files were created with an Olympus VS200 Research Slide Scanner (Olympus/Evident) with a Hamamatsu ORca-Fusion camera (Hamamatsu Photonics) at ×40 magnification. Individual images were created with the OlyVIA Viewer software (Olympus/Evident). Scoring and grading was performed by a pathologist as previously described ([48]). Immunohistochemistry grading was informed by age-matched WT controls. In age-matched WT controls, CD3^+ immune cells were seen scattered without distinct aggregate formation nor associated tissue reaction. In an ×400 field, we observed up to 25 CD3^+ immune cells scattered in an even distribution, with rare events of up to 10 periductal CD3^+ immune cells but with no associated ductal or parenchymal reaction. […] Furthermore, a score of 2 corresponds to 2 to 5 instances of more than 10 periductal CD3^+ immune cells in an ×200 field. Any sample exceeding this threshold was scored a 3.

[5] = tested on: ApoE^–/– mice on an HFD; assay: Oil Red O staining of aortic root plaque; type: in vivo, mouse; set-up: ORO Quantification ORO+ Heart: unit not given here
Protocol: as §1
Hearts were fixed in 4% paraformaldehyde for 24 hours and cryopreserved with sucrose (15% sucrose for 24 hours, 30% sucrose for 24 hours, 1:1 30% sucrose and OCT) before being embedded in OCT (Thermo Fisher Scientific). Frozen embedded samples were sectioned at 8 μm until all 3 leaflets were visible. Aortic root sections were brought to room temperature and rehydrated with PBS. Staining solution was freshly prepared by mixing 3:2 Oil Red O (0.5% in isopropanol, Sigma Aldrich) to water. The solution was filtered through a 0.22 μm PES syringe filter (Millipore) and pipetted onto sections. After 15 minutes in a sealed dark chamber, sections were washed 3 times with water and imaged. Images were analyzed using QuPath (v0.5.0) (https://qupath.github.io). Each leaflet was circled broadly to include the plaque and then subsequently trained on the QuPath pixel classifier using the software’s artificial neural network. Training images were then tested and validated to identify the plaques to calculate their area and exclude non-plaque structures in the image. Plaque sizes were subsequently averaged and used to determine percentage Oil Red O–positive plaque area in the leaflet.

[6] = Inguinal Lymph Node Flow, individual mice
[7] = Mesenteric Lymph Node Flow, individual mice
[8] = liver, individual mice, 150 mM ad libitum for 6 weeks, HFD

CCCC(=O)OC[C@H](N)C(=O)O [SerBut, O-butyryl-L-serine]
liver expression of Acly ([1]; 6 weeks, compared with NaBut-treated mice but not water-treated groups): significantly reduced expression
liver expression of Cpt1a ([1]; 6 weeks, compared with water-treated groups, P = 0.06): strong trend toward reduction
acaca ([1]; qPCR, individual mice): 0.188 and 0.284 and 0.192 and 0.406 and 0.341
acly ([1]; qPCR, individual mice): 0.526 and 0.622 and 0.832 and 0.324 and 0.471
cpt1a ([1]; qPCR, individual mice): 0.348 and 0.381 and 0.409 and 0.745 and 0.465
fasn ([1]; qPCR, individual mice): 0.409 and 0.404 and 0.103 and 0.193 and 0.312
scd1 ([1]; qPCR, individual mice): 1.631 and 1.826 and 1.024 and 0.978 and 0.7
srebf1 ([1]; qPCR, individual mice): 0.853 and 0.562 and 0.47 and 0.606 and 0.321
srebf2 ([1]; qPCR, individual mice): 0.511 and 0.812 and 0.428 and 0.961 and 0.372
TNFa (Legendplex) ([2]; 1.3 mM 24 h, then LPS 6 h): 4133.05 and 4500 and 3675.16 and 3268.68 and 3195.27 and 3191.26
TNFa (Legendplex) ([2]; 4 mM 24 h, then LPS 6 h): 3513.15 and 3456.91 and 3852.76 and 3385.25 and 3103.2 and 3863.3
TNFa (Legendplex) ([2]; 12 mM 24 h, then 200 ng/mL LPS 6 h): 1963.6 and 2002.31 and 2185.35 and 1388.16 and 2487.75 and 2408.88
production of IL-6, MCP-1 and GM-CSF ([2]; 12 mM, as effectively as 1.3 mM NaBut): suppressed NF-κB–regulated production of proinflammatory cytokines
IL-10 ([2]; compared with LPS-stimulated controls): trending increase
frequency of circulating Ly6G^+CD11b^+ neutrophils ([3]; 6 weeks, compared with both NaBut- and water-treated controls): significantly reduced
Arg1+ Macs [3, 6]: 3.53 and 2.72 and 2.64 and 3.19 and 3.9 and 5.62 and 3.61 and 5.94 and 4.82 and 4.83 and 3.4 and 2.08 and 3.78 and 5.04
F480+CD11b+ Macrophages [3, 6]: 0.56 and 0.54 and 0.36 and 0.83 and 0.61 and 1.4 and 0.33 and 0.64 and 0.46 and 0.86 and 0.43 and 0.29
Th17 [3, 6]: 7.49 and 5.92 and 1.67 and 2.37 and 3.33 and 2.23 and 8.03 and 16.8 and 2.7
Th17/Treg [3, 6]: 0.5095 and 0.3947 and 0.09489 and 0.1274 and 0.2068 and 0.1161 and 0.4294 and 1.037 and 0.1588
Treg [3, 6]: 14.7 and 15 and 17.6 and 18.6 and 16.1 and 19.2 and 18.7 and 16.2 and 17
iNOS+ Macs [3, 6]: 5.43 and 3.21 and 3.87 and 2.26 and 2.24 and 2.49 and 6.09 and 2.15 and 4.59 and 2.91 and 7.23 and 2.89 and 7.07 and 5.7
Th17/Treg cell ratio ([3]; MLNs and spleen): reduced the Th17/Treg cell ratio
iNOS^+ of CD11b^+F480^+ macrophages ([3]; MLNs, not ILNs, compared with controls, but not NaBut-treated mice): significantly decreased
regulatory T cells ([3]; MLNs, not skin-draining lymph nodes or spleen): expanded
Arg1+ Macs [3, 7]: 3.56 and 1.85 and 2.39 and 1.1 and 1.07 and 1.12 and 0.97 and 1.19 and 1.91 and 0.93 and 1.08 and 1.16 and 0.95
F480+CD11b+ Macrophages [3, 7]: 5.85 and 7.28 and 6.98 and 8.63 and 11.2 and 7.11 and 5.47 and 7.35 and 5.84 and 3.45 and 4.72 and 5.77 and 7.09
Th17 [3, 7]: 7.78 and 13.7 and 14.7 and 8.43 and 9.66 and 19.2 and 12
Th17/Treg [3, 7]: 0.5329 and 0.6372 and 0.9423 and 0.493 and 0.6114 and 1.091 and 0.7843
Treg [3, 7]: 14.6 and 21.5 and 15.6 and 17.1 and 15.8 and 17.6 and 15.3
iNOS+ Macs [3, 7]: 0.64 and 1 and 0.46 and 0.71 and 0.58 and 0.74 and 0.6 and 0.68 and 1.54 and 0.88 and 0.65 and 0.69
Th17 ([3]; Spleen Flow, individual mice): 0.83 and 1.07 and 1.3 and 0.97 and 1.12 and 1.08 and 1 and 1.34
Th17/Treg ([3]; Spleen Flow, individual mice): 0.115 and 0.1219 and 0.1671 and 0.1127 and 0.16 and 0.145 and 0.1264 and 0.1603
Treg ([3]; Spleen Flow, individual mice): 7.22 and 8.78 and 7.78 and 8.61 and 7 and 7.45 and 7.91 and 8.36
Blood Neutrophils: CD11b+Ly6G+ %CD45 ([3]; blood, individual mice): 12.2 %CD45 and 10.2 %CD45 and 11.9 %CD45 and 16 %CD45 and 15.3 %CD45 and 6.9 %CD45 and 6.35 %CD45 and 13.7 %CD45 and 8 %CD45 and 10.6 %CD45 and 17.9 %CD45 and 2.21 %CD45 and 2.25 %CD45 and 7.63 %CD45
CD3^+ immune cell infiltration into the livers, lobular inflammation ([4]; 6 weeks): Neither SerBut nor NaBut significantly reduced
hepatocellular nuclear hypertrophy ([4]; 6 weeks): suppressed
liver steatosis (macrovesicular fat) score ([4]; 6 weeks): significantly suppressed
overall summed histological liver score ([4]; 6 weeks): reduced liver pathology
Liver Grading and Staging: Balooning Grade, Hypertrophy [4, 8]: 2 and 1 and 0
Liver Grading and Staging: Lobular inflammation (CD3+) [4, 8]: 1 and 0 and 2
Liver Grading and Staging: Steatosis Grade, Macro fat [4, 8]: 0 and 2
NAS score (steatosis, inflammation, Ballooning) [4, 8]: 3 and 2 and 6 and 1
Oil Red O–stained plaque area in the aortic root ([5]; 6 weeks, 150 mM in drinking water, HFD, compared with both control and NaBut-treated groups): significantly less
ORO Quantification ORO+ Heart ([5]; individual mice, experiments 1 and 2): 21.0027 and 29.8005 and 22.5256 and 19.8678 and 31.4493 and 14.4105 and 13.3736 and 26.8175 and 18.8593 and 30.307 and 36.2089 and 15.3228 and 16.4207 and 38.8939 and 24.9469 and 30.9724 and 19.1725
